The target of test [1] is T1, Dmel\Orco + Dmel\Or35a (Drosophila melanogaster, UniProt Q9VNB5).
T1 construct: expressed in transfected cells; host or cells: Xenopus laevis oocytes (cRNA injection, pGEMHE)
T1 sequence (Q9VNB5 1-486): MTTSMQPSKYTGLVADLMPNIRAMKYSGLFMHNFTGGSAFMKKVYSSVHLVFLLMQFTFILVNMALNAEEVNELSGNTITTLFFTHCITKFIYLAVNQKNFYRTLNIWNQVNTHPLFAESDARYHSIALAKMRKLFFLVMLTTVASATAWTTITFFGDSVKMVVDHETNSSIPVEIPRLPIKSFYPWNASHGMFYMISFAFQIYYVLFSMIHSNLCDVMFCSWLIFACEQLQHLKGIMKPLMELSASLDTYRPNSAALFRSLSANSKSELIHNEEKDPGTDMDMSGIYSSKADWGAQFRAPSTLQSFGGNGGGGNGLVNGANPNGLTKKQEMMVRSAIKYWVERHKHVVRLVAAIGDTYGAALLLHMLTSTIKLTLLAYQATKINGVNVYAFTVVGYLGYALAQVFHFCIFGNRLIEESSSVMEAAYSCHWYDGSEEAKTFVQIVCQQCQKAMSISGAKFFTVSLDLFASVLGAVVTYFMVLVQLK
T1 sequence (Q9V3Q2 1-409 partner): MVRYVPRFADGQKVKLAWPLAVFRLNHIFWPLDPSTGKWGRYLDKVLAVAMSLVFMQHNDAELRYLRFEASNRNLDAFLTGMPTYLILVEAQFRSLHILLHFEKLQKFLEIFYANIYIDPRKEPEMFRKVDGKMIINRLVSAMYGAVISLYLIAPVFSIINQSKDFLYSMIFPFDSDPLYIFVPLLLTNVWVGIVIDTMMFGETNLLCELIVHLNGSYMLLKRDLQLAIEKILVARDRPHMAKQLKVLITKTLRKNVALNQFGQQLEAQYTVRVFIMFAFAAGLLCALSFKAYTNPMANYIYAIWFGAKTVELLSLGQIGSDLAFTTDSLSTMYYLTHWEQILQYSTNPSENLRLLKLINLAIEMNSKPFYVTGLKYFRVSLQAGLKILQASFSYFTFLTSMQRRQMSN
The experiment in a line: Inhibition of OLC12 activation of Dmel\Orco + Dmel\Or35a in Xenopus oocytes. The test is classed as cell-based. The method, then:
(§1) Oocytes were surgically removed from mature Xenopus laevis frogs. Follicle cells were removed by treatment with Collagenase B (Boehringer Mannhem) for 2 hours at room temperature. Capped cRNA encoding each DmOR subunit was generated using mMessage mMachine kits (Ambion). For heteromeric ORs, 25 ng of cRNA encoding each OR subunit was injected into Stage V-VI Xenopus oocytes. For expression of Orco alone, 50 ng of cRNA was injected. Oocytes were incubated at 18°C in Barth’s saline (in mM: 88 NaCl, 1 KCl, 2.4 NaHCO3, 0.3 CaNO3, 0.41 CaCl2, 0.82 MgSO4, 15 HEPES, pH 7.6, and 150 µg/ml ceftazidime) for 2–5 days prior to electrophysiological recording.
(§2) Odorant and Orco ligand induced currents were recorded under two-electrode voltage clamp in Xenopus laevis oocytes expressing ORs, using an automated parallel electrophysiology system (OpusExpress 6000A; Molecular Devices). Oocytes were perfused with ND96 (in mM: 96 NaCl, 2 KCl, 1 CaCl2, 1 MgCl2, 5 HEPES, pH 7.5). Odorant stock solutions (0.5 or 1 M) and Orco ligand stock solutions (100 mM) were prepared in DMSO and diluted in ND96. Unless otherwise noted, applications were for 60 sec at a flow rate of 1.0 ml/min, with extensive washing in ND96 (9 or 20 min at 4.6 ml/min) between applications. Micropipettes were filled with 3 M KCl and had resistances of 0.2−2.0 MΩ. The holding potential was −70 mV. Current responses, filtered (4-pole, Bessel, low pass) at 20 Hz (−3 db) and sampled at 100 Hz, were captured and stored using OpusXpress 1.1 software (Molecular Devices).
(§3) In inhibition assays, oocytes were exposed to 60 sec applications of OLC12 with 9 min washes between applications (Fig. 3 and 4) or 60 sec applications of odorant with 20 min washes between applications (Fig. 5). Oocytes were then exposed to a 90 sec application of antagonist candidate, immediately followed by a 60 sec co-application of antagonist candidate and OLC12 or odorant. Oocytes were then exposed to a final 60 sec application of OLC12 or odorant. The current response in the presence of antagonist candidate was compared to the preceding response(s) to OLC12 (or odorant) alone.
(§4) Initial analysis of electrophysiological data was done using Clampfit 9.1 software (Molecular Devices). Curve fitting and statistical analyses were done using Prism 5 (Graphpad). Concentration-response data were fit to the equation: I = Imax/(1+(EC50/X)^n) where I represents the current response at a given concentration of odorant, X; Imax is the maximal response; EC50 is the concentration of agonist yielding a half maximal response; n is the apparent Hill coefficient. Concentration-inhibition data were fit to the equation: I = Imax/(1+(X/IC50)^n) where I represents the current response at a given concentration of inhibitor, X; Imax is the maximal response in the absence of inhibitor; IC50 is the concentration of inhibitor present that still allows a half maximal response from odorant; n is the apparent Hill coefficient. Statistical significance was assessed using a two-tailed unpaired t test, an F test, or a one-way analysis of variance followed by the Bonferroni’s post-test, as appropriate.

Test [2] addresses T2, Dmel\Orco (Drosophila melanogaster, UniProt Q9VNB5).
T2 construct: expressed in transfected cells; host or cells: Xenopus laevis oocytes (cRNA injection, pGEMHE)
T2 sequence (Q9VNB5 1-486): T1 sequence (Q9VNB5 1-486)
The experiment in a line: Inhibition of OLC12 activation of Dmel\Orco in Xenopus oocytes. Format: cell-based. The conditions noted are these: for IC50: activated by 30 µM OLC12 (EC39). Here is the method: as §1, §2, §3, §4

Test [3] concerns the target T3, Agam\Orco + Agam\Or65 (Anopheles gambiae, UniProt Q7QCC7).
T3 construct: expressed in transfected cells; host or cells: Xenopus laevis oocytes (cRNA injection; vectors pSP64T-Oligo and pT7TS)
T3 sequence (Q7QCC7 1-478): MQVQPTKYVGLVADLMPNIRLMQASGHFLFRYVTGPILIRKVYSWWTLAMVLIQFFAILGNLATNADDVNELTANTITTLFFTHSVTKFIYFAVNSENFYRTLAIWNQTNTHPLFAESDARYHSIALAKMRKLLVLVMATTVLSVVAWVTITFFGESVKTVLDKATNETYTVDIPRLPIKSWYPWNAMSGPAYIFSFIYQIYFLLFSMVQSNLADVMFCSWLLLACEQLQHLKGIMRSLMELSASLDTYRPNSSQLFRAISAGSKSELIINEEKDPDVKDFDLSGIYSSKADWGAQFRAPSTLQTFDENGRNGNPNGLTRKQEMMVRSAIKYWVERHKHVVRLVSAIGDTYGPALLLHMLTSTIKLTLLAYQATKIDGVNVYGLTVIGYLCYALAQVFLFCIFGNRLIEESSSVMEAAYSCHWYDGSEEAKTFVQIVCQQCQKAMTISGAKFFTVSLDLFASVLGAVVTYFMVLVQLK
The experiment in a line: Inhibition of odorant (eugenol) activation of Agam\Orco + Agam\Or65 in Xenopus oocytes. The conditions noted are these: 100 nM eugenol; OLC compound 100 µM. The test is classed as cell-based, A. gambiae.

Test [4] concerns Onub\Orco + Onub\Or1. In words: Inhibition of odorant (E12-14:OAc) activation of Onub\Orco + Onub\Or1 in Xenopus oocytes. The test is classed as cell-based, Ostrinia nubilalis. To be noted: OLC compound 100 µM. The method, then:
as §1
Odorant and Orco ligand induced currents were recorded under two-electrode voltage clamp in Xenopus laevis oocytes expressing ORs, using an automated parallel electrophysiology system (OpusExpress 6000A; Molecular Devices). Oocytes were perfused with ND96 (in mM: 96 NaCl, 2 KCl, 1 CaCl2, 1 MgCl2, 5 HEPES, pH 7.5). Odorant stock solutions (0.5 or 1 M) and Orco ligand stock solutions (100 mM) were prepared in DMSO and diluted in ND96. […]
Initial analysis of electrophysiological data was done using Clampfit 9.1 software (Molecular Devices). […] Statistical significance was assessed using a two-tailed unpaired t test, an F test, or a one-way analysis of variance followed by the Bonferroni’s post-test, as appropriate.

The mark [5] stands for this setting: activated by 10 µM OLC12 (EC25), read-out: IC50, Dmel\Orco + Dmel\Or35a (activated by 10 µM OLC12).

SMILES strings stand for the structures. Read-outs that look alike come from different tables or passages of the source.

Consider two compounds from article PMC3348135, “Identification of New Agonists and Antagonists of the Insect Odorant Receptor Co-Receptor Subunit” (PLoS ONE, 2012).

Turning to `CCc1ccc(NC(=O)CSc2nnc(-c3ccccn3)n2CC)cc1` [OLC2], the half-maximal inhibitory concentration (IC50) in test [1] (setting [5]) amounted to 24 ± 5 µM; in test [2], 23 ± 3 µM. Besides, the “Inhibition of activation of Dmel\Orco by 30 µM OLC12 on co-application” value in test [2] (100 µM compound co-applied with 30 µM OLC12) was “inhibits”. Also, in test [3], the “Inhibition of activation of Agam\Orco+Agam\Or65 by eugenol” value is “inhibited”. Moreover, the “Inhibition of activation of Onub\Orco+Onub\Or1 by E12-14:OAc” value in test [4] is “inhibited”.
As to `CCCCc1ccc(NC(=O)CSc2nnc(-c3ccccn3)n2CC)cc1` [OLC15], the concentration for half-maximal inhibition (IC50) in test [1] (setting [5]) is 15 ± 1 µM; in test [1] (activated by 100 µM OLC12, read-out: IC50, Dmel\Orco + Dmel\Or35a activated by 100 µM OLC12) it was 67 ± 7 µM; in test [2], 15 ± 2 µM. Further, the “Inhibition of activation of Agam\Orco+Agam\Or65 by eugenol” value in test [3] is reported as “inhibited”. For the same compound, the “Inhibition of activation of Onub\Orco+Onub\Or1 by E12-14:OAc” value in test [4] is listed as “inhibited”.

In general, IC50 refers to the midpoint of a concentration-inhibition curve.
